IC50 data for 28 compounds are collected here from patent US20110118262A1, “Pyrrolidinyl and Piperidinyl Compounds Useful as NHE-1 Inhibitiors” (BOEHRINGER INGELHEIM INTERNATIONAL GMBH, priority 2008, published 2011).

SMILES strings stand for the structures.

The assay has as its target T1, NHE-1 (Homo sapiens, UniProt P19634).
T1 construct: endogenous in cells; host or cells: HT-29
The assay is described as follows: Evaluation of NHE-1 Inhibition (pHi) in HT-29 cells. The class given is cell-based. To be noted: BCECF dye, 50% inhibition of the intracellular pH recovery, read-out: NHE1 HT29 pHi IC50. As for the experimental part:
Evaluation of NHE-1 Inhibition (pHi)
HT-29 cells resuspended in DMEM supplemented with 10% FBS, 1% NEAA, and 1% Penn-Strep are seeded at 10,000 cells/well in collagen coated 384 well plates which are then incubated for 24 hours at 37° C. The next day, the medium is removed and the cells are dye (Invitrogen's BCECF) loaded for 30 minutes at 37° C., washed three times with an acid loading buffer (10 mM NH4Cl, 1.8 mM CaCl2, 90 mM Choline Cl, 5 mM Glucose, 15 mM Hepes, 5 mM KCl, 1 mM MgCl2, adjusted to pH 7.5 with KOH) and further incubated at RT for 30 minutes.
At the end of the incubation, the buffer is removed and 5 uL of fresh acid loading buffer is added to each well to prevent the dessication of the cells. The plate is placed in a Hamamatsu FDSS6000 instrument and candidate compounds are added to the cells.

T1 sequence (P19634 whole entry): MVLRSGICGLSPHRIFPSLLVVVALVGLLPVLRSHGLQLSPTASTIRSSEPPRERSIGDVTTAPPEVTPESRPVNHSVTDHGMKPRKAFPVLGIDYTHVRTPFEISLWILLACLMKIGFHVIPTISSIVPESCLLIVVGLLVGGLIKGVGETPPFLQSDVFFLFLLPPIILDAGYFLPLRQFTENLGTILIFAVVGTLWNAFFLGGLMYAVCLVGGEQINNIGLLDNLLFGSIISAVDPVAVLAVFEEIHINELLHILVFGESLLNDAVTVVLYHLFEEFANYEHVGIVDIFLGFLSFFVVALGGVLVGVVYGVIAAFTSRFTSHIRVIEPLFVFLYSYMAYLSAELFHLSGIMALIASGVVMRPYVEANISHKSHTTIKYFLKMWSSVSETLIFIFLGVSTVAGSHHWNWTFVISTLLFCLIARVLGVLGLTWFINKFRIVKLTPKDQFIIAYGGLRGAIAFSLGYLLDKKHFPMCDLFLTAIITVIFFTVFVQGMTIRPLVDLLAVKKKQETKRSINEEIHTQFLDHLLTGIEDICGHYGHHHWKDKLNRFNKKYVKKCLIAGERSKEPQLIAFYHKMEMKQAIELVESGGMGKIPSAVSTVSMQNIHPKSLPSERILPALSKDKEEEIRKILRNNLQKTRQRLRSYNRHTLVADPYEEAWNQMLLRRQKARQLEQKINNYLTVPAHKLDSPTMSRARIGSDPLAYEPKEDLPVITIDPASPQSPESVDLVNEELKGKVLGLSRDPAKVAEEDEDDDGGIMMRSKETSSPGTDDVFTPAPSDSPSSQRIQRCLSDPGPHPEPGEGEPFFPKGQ

For `CN(C)CCC(=O)N1CCC(c2ccc(C(=O)NC(=N)N)cc2C(F)(F)F)CC1` [N-{4-[1-(3-Dimethylamino-propionyl)-piperidin-4-yl]-3-trifluoromethyl-benzoyl}-guanidine], the IC50 came to 10 nM.

Regarding `N=C(N)NC(=O)c1ccc(C2CCN(C(=O)C(N)Cc3cccs3)CC2)c(C(F)(F)F)c1` (stereo not shown) [N-{4-[1-(2-Amino-3-thiophen-2-yl-propionyl)-piperidin-4-yl]-3-trifluoromethyl-benzoyl}-guanidine], the IC50 came to 35 nM.

For the compound `N=C(N)NC(=O)c1ccc(C2CCN(C(=O)C3CCCC3)CC2)c(C(F)(F)F)c1` [N-[4-(1-Cyclopentanecarbonyl-piperidin-4-yl)-3-trifluoromethyl-benzoyl]-guanidine], the IC50 came out at 77 nM.

On to `CC(=O)N1CCC(c2cc(C)c(C(=O)NC(=N)N)cc2C(F)(F)F)CC1` [N-[4-(1-Acetyl-piperidin-4-yl)-2-methyl-5-trifluoromethyl-benzoyl]-guanidine], for which the IC50 stood at 9 nM.

Take `Cc1cc(C2CCN(C(=O)c3ncc[nH]3)CC2)c(C(F)(F)F)cc1C(=O)NC(=N)N` [N-{4-[1-(1H-Imidazole-2-carbonyl)-piperidin-4-yl]-2-methyl-5-trifluoromethyl-benzoyl}-guanidine]: the 50% inhibitory concentration (IC50) was 4 nM.

Consider `N=C(N)NC(=O)c1ccc(C2CCN(C(=O)C3CCCNC3)CC2)c(C(F)(F)F)c1` (stereo not shown) [N-{4-[1-(Piperidine-3-carbonyl)-piperidin-4-yl]-3-trifluoromethyl-benzoyl}-guanidine], for which the IC50 was 17 nM.

For `N=C(N)NC(=O)c1ccc(C2CCN(C(=O)C3CCNC3)CC2)c(C(F)(F)F)c1` (stereo not shown) [N-{4-[1-(Pyrrolidine-3-carbonyl)-piperidin-4-yl]-3-trifluoromethyl-benzoyl}-guanidine], the IC50 was determined as 5 nM.

For `N=C(N)NC(=O)c1ccc(C2CCN(C(=O)c3cccc(Br)c3)CC2)c(C(F)(F)F)c1` [N-{4-[1-(3-Bromo-benzoyl)-piperidin-4-yl]-3-trifluoromethyl-benzoyl}-guanidine], the IC50 amounted to 180 nM.

For `COc1cc(C(=O)N2CCC(c3ccc(C(=O)NC(=N)N)cc3C(F)(F)F)CC2)ccc1-c1cccnc1` [N-{4-[1-(3-Methoxy-4-pyridin-3-yl-benzoyl)-piperidin-4-yl]-3-trifluoromethyl-benzoyl}-guanidine], the IC50 worked out at 66 nM.

On to `COc1cc(C2CCN(C(=O)c3ccc(F)cc3)CC2)c(C(F)(F)F)cc1C(=O)NC(=N)N` [N-{4-[1-(4-Fluoro-benzoyl)-piperidin-4-yl]-2-methoxy-5-trifluoromethyl-benzoyl}-guanidine], for which the IC50 was 16 nM.

Take `N=C(N)NC(=O)c1ccc(C2CCN(C(=O)c3ccc(C(=O)O)cc3)CC2)c(C(F)(F)F)c1` [4-[4-(4-Guanidinocarbonyl-2-trifluoromethyl-phenyl)-piperidine-1-carbonyl]-benzoic acid]: the IC50 turned out to be 27 nM.

For `N=C(N)NC(=O)c1ccc(C2CCN(C(=O)c3ccc(-n4cccn4)nc3)CC2)c(C(F)(F)F)c1` [N-{4-[1-(6-Pyrazol-1-yl-pyridine-3-carbonyl)-piperidin-4-yl]-3-trifluoromethyl-benzoyl}-guanidine], the 50% inhibitory concentration (IC50) is 92 nM.

As to `CN1CCOc2cc(C(=O)N3CCC(c4ccc(C(=O)NC(=N)N)cc4C(F)(F)F)CC3)ccc21` [N-{4-[1-(4-Methyl-3,4-dihydro-2H-benzo[1,4]oxazine-7-carbonyl)-piperidin-4-yl]-3-trifluoromethyl-benzoyl}-guanidine], the IC50 was determined as 47 nM.

As for `N=C(N)NC(=O)c1ccc(C2CCN(C(=O)c3cccc4ncccc34)CC2)c(C(F)(F)F)c1` [N-{4-[1-(Quinoline-5-carbonyl)-piperidin-4-yl]-3-trifluoromethyl-benzoyl}-guanidine], the IC50 stood at 46 nM.

Take `COc1cc(C2CCN(C(=O)c3cccc(C#N)c3)CC2)c(C(F)(F)F)cc1C(=O)NC(=N)N` [N-{4-[1-(3-Cyano-benzoyl)-piperidin-4-yl]-2-methoxy-5-trifluoromethyl-benzoyl}-guanidine]: the IC50 was found to be 19 nM.

Consider `COCC(=O)N1CCC(c2ccc(C(=O)NC(=N)N)cc2S(C)(=O)=O)CC1` [N-{3-methanesulfonyl-4-[1-(2-methoxy-acetyl)-piperidin-4-yl]-benzoyl}-guanidine], for which the IC50 was 24 nM.

Turning to `CN(C)CC(=O)N1CCC(c2ccc(C(=O)NC(=N)N)cc2C(F)(F)F)CC1` [N-{4-[1-(2-Dimethylamino-acetyl)-piperidin-4-yl]-3-trifluoromethyl-benzoyl}-guanidine], the IC50 turned out to be 5 nM.

For the compound `N=C(N)NC(=O)c1ccc(C2CCN(C(=O)c3cccc(F)c3)CC2)c(C(F)(F)F)c1` [N-{4-[1-(3-Fluoro-benzoyl)-piperidin-4-yl]-3-trifluoromethyl-benzoyl}-guanidine], the IC50 was found to be 105 nM.

Take `COc1cc(C2CCN(C(=O)[C@@H](OC(C)=O)c3ccccc3)CC2)c(C(F)(F)F)cc1C(=O)NC(=N)N` [(S)-Acetic acid 2--[4-(4-guanidinocarbonyl-5-methoxy-2-trifluoromethyl-phenyl)-piperidin-1-yl]-2-oxo-1-phenyl-ethyl ester]: the IC50 is 92 nM.

On to `C[S+]([O-])CC[C@H](N)C(=O)N1CCC(c2ccc(C(=O)NC(=N)N)cc2C(F)(F)F)CC1` (stereo partly drawn) [(S)-N-{4-[1-(-2-Amino-4-methanesulfinyl-butyryl)-piperidin-4-yl]-3-trifluoromethyl-benzoyl}-guanidine], for which the IC50 turned out to be 12 nM.

On to `CS(=O)(=O)c1cc(C(=O)NC(=N)N)ccc1C1CCN(C(=O)c2cccc(C(F)(F)F)c2)CC1` [N-{3-methanesulfonyl-4-[1-(3-trifluoromethyl-benzoyl)-piperidin-4-yl]-benzoyl}-guanidine], for which the IC50 amounted to 54 nM.

Take `N=C(N)NC(=O)c1ccc(C2CCN(C(=O)c3ccc4c(c3)OCCO4)CC2)c(C(F)(F)F)c1` [N-{4-[1-(2,3-Dihydro-benzo[1,4]dioxine-6-carbonyl)-piperidin-4-yl]-3-trifluoromethyl-benzoyl}-guanidine]: the IC50 was determined as 130 nM.

In the case of `N=C(N)NC(=O)c1ccc(C2CCN(C(=O)C3CCOCC3)CC2)c(C(F)(F)F)c1` [N-{4-[1-(Tetrahydro-pyran-4-carbonyl)-piperidin-4-yl]-3-trifluoromethyl-benzoyl}-guanidine], the IC50 turned out to be 61 nM.

On to `COc1ccc(C(=O)N2CCC(c3ccc(C(=O)NC(=N)N)cc3C(F)(F)F)CC2)cn1` [N-{4-[1-(6-Methoxy-pyridine-3-carbonyl)-piperidin-4-yl]-3-trifluoromethyl-benzoyl}-guanidine], for which the IC50 came to 58 nM.

`N#Cc1cccc(C(=O)N2CCC(c3ccc(C(=O)NC(=N)N)cc3C(F)(F)F)CC2)c1` [N-{4-[1-(3-Cyano-benzoyl)-piperidin-4-yl]-3-trifluoromethyl-benzoyl}-guanidine]: the IC50 amounted to 65 nM.

`Cc1cc(C2CCN(C(=O)C(C)(C)O)CC2)c(C(F)(F)F)cc1C(=O)NC(=N)N` [N-{4-[1-(2-Hydroxy-2-methyl-propionyl)-piperidin-4-yl]-2-methyl-5-trifluoromethyl-benzoyl}-guanidine]: the half-inhibitory concentration (IC50) was 16 nM.

With `CC(N)C(=O)N1CCC(c2ccc(C(=O)NC(=N)N)cc2C(F)(F)F)CC1` (stereo not shown) [N-{4-[1-(2-Amino-propionyl)-piperidin-4-yl]-3-trifluoromethyl-benzoyl}-guanidine], the IC50 came out at 5 nM.

Regarding `N=C(N)NC(=O)c1ccc(C2CCN(C(=O)c3ccccn3)CC2)c(C(F)(F)F)c1` [N-{4-[1-(Pyridine-2-carbonyl)-piperidin-4-yl]-3-trifluoromethyl-benzoyl}-guanidine], the IC50 was 10 nM.

As usually defined, the IC50 is the concentration at which inhibition is half-maximal.
